{"source": "patent US20190373936A1", "about": "“COMPOSITION, METHOD FOR PRODUCING THE SAME AND USE THEREOF” (INFINITUS (CHINA) COMPANY LTD., priority 2018, published 2019)", "key": {"[1]": {"system": "SD rats of combined hyperlipidemia model", "assay": "Function of facilitating lowering blood lipid: serum lipid indexes by ELISA in combined hyperlipidemia SD rat model", "type": "in vivo", "source_text": "(§1) In the present disclosure, reference was made to the method for testing the function of facilitating lowering blood-lipid in the Technical specification for health care food inspection and evaluation (2012 Updated Edition). SPF grade male SD rats were used as experimental animals. After the adaption period, an animal model of the combined hyperlipidemia was established, and the rats were randomly divided into groups according to TC level. Three dosage groups were continuously administered with the composition provided by the present disclosure by gavage at a dosage of 500 mg/kg·BW (equaled to 5 times of recommendation amount for human), 1000 mg/kg·BW (equaled to 10 times of recommendation amount for human) and 2500 mg/kg·BW (equaled to 25 times of recommendation amount for human), respectively. The blank control group and the model control group were administered with the same volume of distilled water by gavage. Each group was weighed regularly. 30 days after the administration, blood samples were collected without fasting, and levels of TC, TG, HDL-C, LDL-C, ox-HDL, ox-LDL, apo-A1 and apo-β were tested.\nName: SPF grade male SD rats, body weight 170˜220 g\nHigh-fat diet: maintenance diet with 20.0% sucrose, 15% lard, 1.2% cholesterol, 0.2% sodium cholate, appropriate amounts of casein, calcium hydrogen phosphate, rock powders and so on. Except for crude fat, water content, crude protein, crude fat, crude fiber, ash, calcium, phosphate and calcium:phosphate ratio reached the national standard for maintenance diet.\nSurgical instruments, centrifuges, centrifuge tubes, electronic balances, punchers, gavage needles, enzyme-labeled instruments, heparin sodium, anesthetic, formalin, refrigerators, vortex mixer, weighing scale, serum total cholesterol (TC) ELISA kit, serum triglyceride (TG) ELISA kit, serum high-density lipoprotein cholesterol (HDL-C) ELISA kit, serum low-density lipoprotein cholesterol (LDL-C) ELISA kit, serum oxidized high-density lipoprotein cholesterol (ox-HDL-C) ELISA kit, serum oxidized low-density lipoprotein cholesterol (ox-LDL-C) ELISA kit, serum apolipoprotein A1 (apo-A1) ELISA kit, and serum apolipoprotein (apo-β) ELISA kit.\nThere were three dosage groups, two positive control groups, one blank control group and one model control group. In low-dosage group, the test sample was administered at a dosage of 5 times of the recommendation amount for human (500 mg/kg), and in middle-dosage and high-dosage groups, the dosages equaled to 10 times (1000 mg/kg) and 25 times (2500 mg/kg) of the recommendation amount for human. The dosage of the positive control group equaled to 5 times (omega: 150 mg/kg; and atorvastatin calcium: 0.83 mg/kg) of the recommendation amount for human. The blank control group and the model control group were administered with equal amount of distilled water at the same volume by gavage. The duration of the administration of the test sample was generally 30 days.\nThe compositions provided by the examples 1˜3, the powder formulations provided by the examples 4˜6 were accurately weighed, and an appropriate amount of distilled water was added to prepare the low-, middle- and high-dosages samples. The samples were prepared right before use.\n(1) Adaptive period: In a barrier system, the rats were fed on maintenance diet and observed for 5˜7 days.\nThe rats were randomly divided into 22 groups, 6 per group. One group was fed on the maintenance diet as the blank control group. The other 21 groups were fed on high-fat diet as the model control group. The rats were weighed once a week.\n20 days after the model control group was fed on high-fat diet, rats in the blank control group and the model control groups were subjected to blood collection (1˜1.5 mL of blood was collected from the tail vein) without fasting. After blood collection, the serum was quickly separated to a new centrifugal tube, stored at −20° C. before test. […]"}, "[2]": {"assay": "Body weight of SD rats fed high-fat diet during administration of test sample", "type": "in vivo", "conditions": "positive control groups (omega 150 mg/kg; atorvastatin calcium 0.83 mg/kg), 30 days", "source_text": "as §1, with “The blank control group and the model control group were administered with the same volume of distilled water by gavage. Each group was weighed regularly. 30 days after the administration, blood samples were collected without fasting, and levels of TC, TG, HDL-C, LDL-C, ox-HDL, ox-LDL, apo-A1 and apo-β were tested.” left out\nAfter grouping, each dosage group was orally administered with the test sample every day, the two positive groups were respectively orally administered with positive control samples (diluted Omega solution and diluted atorvastatin calcium solution), and the blank control group and the model control group were administered with the same volume of distilled water. […] After blood collection, the serum was quickly separated, and levels of TC, TG, HDL-C, LDL-C, ox-HDL-C, ox-LDL-C, apo-A1 and apo-β in serum were measured."}, "[3]": {"conditions": "positive control groups (omega 150 mg/kg; atorvastatin calcium 0.83 mg/kg), 30 days"}}}
{"smiles": "CC(C)c1c(C(=O)Nc2ccccc2)c(-c2ccccc2)c(-c2ccc(F)cc2)n1CC[C@@H](O)C[C@@H](O)CC(=O)[O-].CC(C)c1c(C(=O)Nc2ccccc2)c(-c2ccccc2)c(-c2ccc(F)cc2)n1CC[C@@H](O)C[C@@H](O)CC(=O)[O-].[Ca+2]", "note": "[Atorvastatin Calcium, atorvastatin calcium]", "values": [{"measurement": "Effect on Apo-β content in serum of SD rats", "setting": "[1]; compared with the model control group", "value": "decreased"}, {"measurement": "Apo-A1 levels in serum (Mean Value ± Standard Deviation)", "setting": "[1]; [3]", "value": "2693.75 ± 435.48", "unit": "µg/mL"}, {"measurement": "Apo-β levels in serum (Mean Value ± Standard Deviation)", "setting": "[1]; [3]", "value": "735.00 ± 264.71", "unit": "µg/mL"}, {"measurement": "HDL-C levels in serum (Mean Value ± Standard Deviation)", "setting": "[1]; [3]", "value": "919.74 ± 150.63", "unit": "µmol/L"}, {"measurement": "LDL-C levels in serum (Mean Value ± Standard Deviation)", "setting": "[1]; [3]", "value": "853.24 ± 235.19", "unit": "µmol/L"}, {"measurement": "Ox-HDL-C levels in serum (Mean Value ± Standard Deviation)", "setting": "[1]; [3]", "value": "35.88 ± 7.30", "unit": "µg/L"}, {"measurement": "Ox-LDL-C levels in serum (Mean Value ± Standard Deviation)", "setting": "[1]; [3]", "value": "45.44 ± 7.40", "unit": "µg/L"}, {"measurement": "TC levels in serum (Mean Value ± Standard Deviation)", "setting": "[1]; [3]", "value": "1117.14 ± 171.07", "unit": "µmol/L"}, {"measurement": "TG levels in serum (Mean Value ± Standard Deviation)", "setting": "[1]; [3]", "value": "189.71 ± 45.83", "unit": "µmol/L"}, {"measurement": "Final Weight (Mean Value ± Standard Deviation)", "setting": "[2]", "value": "442.00 ± 40.77"}]}
